According to ChEMBL document CHEMBL1201862, “PubChem BioAssay data set” (2004):
Activity calls are given as the source filed them.

Experiments:
[1] = biological target: Dual specificity tyrosine-phosphorylation-regulated kinase 1A (Rattus norvegicus, UniProt Q63470); format: biochemical, Homo sapiens
[2] = biological target: Bifunctional protein GlmU (Mycobacterium tuberculosis, UniProt P9WMN3); assay: Inhibitors of Mycobacterial Glucosamine-1-phosphate acetyl transferase (GlmU). Secondary screen.; set-up: species or system Mycobacterium tuberculosis H37Rv
[3] = biological target: T1, Heat shock factor protein 1 (Mus musculus, UniProt P38532); assay: decrease of HSF1-responsive luciferase luminescence – cell-based, NIH3T3, dose retest, confirmation (AID 2382); format: functional;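 note: NIH3T3 fibroblasts with HSF1-driven luciferase reporter stressed by proteasome inhibitor MG132; luminescence from HSF1-driven luciferase expression after 8 hours of MG132 stress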
T1 sequence (P38532 whole entry): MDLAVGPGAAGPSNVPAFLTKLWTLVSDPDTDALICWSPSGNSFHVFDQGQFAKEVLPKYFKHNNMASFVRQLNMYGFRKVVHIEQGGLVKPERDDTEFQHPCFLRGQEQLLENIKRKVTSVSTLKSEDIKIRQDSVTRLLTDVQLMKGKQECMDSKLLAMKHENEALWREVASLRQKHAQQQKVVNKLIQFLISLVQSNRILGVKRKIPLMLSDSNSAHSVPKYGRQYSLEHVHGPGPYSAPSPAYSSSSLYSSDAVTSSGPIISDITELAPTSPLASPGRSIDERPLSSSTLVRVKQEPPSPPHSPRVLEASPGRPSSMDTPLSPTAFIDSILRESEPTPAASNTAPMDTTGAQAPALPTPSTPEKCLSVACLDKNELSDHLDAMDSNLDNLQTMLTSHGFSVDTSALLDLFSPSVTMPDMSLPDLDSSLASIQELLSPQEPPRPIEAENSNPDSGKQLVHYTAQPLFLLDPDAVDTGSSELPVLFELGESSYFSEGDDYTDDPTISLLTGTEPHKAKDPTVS

[4] = biological target: 5-hydroxytryptamine receptor 1A (Homo sapiens, UniProt P08908); format: functional
[5] = biological target: T2, Replicative DNA helicase DnaB (Mycobacterium tuberculosis, UniProt P9WMR3); assay: DnaB intein splicing inhibitors, dose response, biochemical, cell-free fluorescence (AID 449749); format: functional
T2 sequence (P9WMR3 whole entry): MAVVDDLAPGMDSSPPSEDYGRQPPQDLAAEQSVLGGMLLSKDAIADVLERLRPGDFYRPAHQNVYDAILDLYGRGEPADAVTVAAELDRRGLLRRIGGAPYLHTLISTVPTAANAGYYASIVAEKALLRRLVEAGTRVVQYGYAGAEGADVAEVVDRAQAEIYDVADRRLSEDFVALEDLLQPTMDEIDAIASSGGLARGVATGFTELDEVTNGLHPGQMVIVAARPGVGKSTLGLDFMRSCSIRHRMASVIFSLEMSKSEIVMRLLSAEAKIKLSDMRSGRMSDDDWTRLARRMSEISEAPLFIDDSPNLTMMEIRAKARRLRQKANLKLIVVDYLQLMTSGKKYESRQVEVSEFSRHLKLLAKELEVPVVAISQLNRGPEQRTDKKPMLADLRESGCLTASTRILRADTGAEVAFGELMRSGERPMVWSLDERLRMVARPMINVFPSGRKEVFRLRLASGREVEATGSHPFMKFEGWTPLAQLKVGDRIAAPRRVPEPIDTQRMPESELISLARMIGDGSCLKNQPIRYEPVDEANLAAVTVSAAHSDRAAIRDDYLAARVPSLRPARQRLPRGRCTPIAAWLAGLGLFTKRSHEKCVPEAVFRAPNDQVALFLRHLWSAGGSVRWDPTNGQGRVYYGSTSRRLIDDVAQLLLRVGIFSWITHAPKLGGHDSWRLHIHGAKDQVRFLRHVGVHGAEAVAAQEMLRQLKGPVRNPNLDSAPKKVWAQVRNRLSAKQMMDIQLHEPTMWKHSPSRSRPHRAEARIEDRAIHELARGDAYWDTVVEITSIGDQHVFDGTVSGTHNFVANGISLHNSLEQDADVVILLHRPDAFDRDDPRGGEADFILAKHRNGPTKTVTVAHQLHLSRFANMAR

[6] = Trypanosoma cruzi growth suppression in host cells – NIH3T3 host cells, beta-gal luminescence, confirmation (AID 2044); format: functional, cell-based;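 note: intracellular parasites grown in NIH/3T3 mouse fibroblasts as host cells; luminescent beta-galactosidase reporter signal from transgenic T. cruzi replicating inside host cells; inhibitors lower the luminescence signal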
[7] = NIH3T3 cell viability loss – ATP luminescence, mouse fibroblasts, counter-screen, dose response (AID 2010); format: functional, cell-based;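 note: cells exposed to compound for about 90 hours before reading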
Protein RecA = biological target: T3, Protein RecA (Mycobacterium tuberculosis, UniProt P9WHJ3); assay: Fluorescence Cell-Free Homogeneous Dose Retest to Identify Inhibitors of RecA-Intein Splicing Activity. [Related pubchem assays (depositor defined):AID2097, AID2223, AID489010, AID492950]; format: functional
T3 sequence (P9WHJ3 whole entry): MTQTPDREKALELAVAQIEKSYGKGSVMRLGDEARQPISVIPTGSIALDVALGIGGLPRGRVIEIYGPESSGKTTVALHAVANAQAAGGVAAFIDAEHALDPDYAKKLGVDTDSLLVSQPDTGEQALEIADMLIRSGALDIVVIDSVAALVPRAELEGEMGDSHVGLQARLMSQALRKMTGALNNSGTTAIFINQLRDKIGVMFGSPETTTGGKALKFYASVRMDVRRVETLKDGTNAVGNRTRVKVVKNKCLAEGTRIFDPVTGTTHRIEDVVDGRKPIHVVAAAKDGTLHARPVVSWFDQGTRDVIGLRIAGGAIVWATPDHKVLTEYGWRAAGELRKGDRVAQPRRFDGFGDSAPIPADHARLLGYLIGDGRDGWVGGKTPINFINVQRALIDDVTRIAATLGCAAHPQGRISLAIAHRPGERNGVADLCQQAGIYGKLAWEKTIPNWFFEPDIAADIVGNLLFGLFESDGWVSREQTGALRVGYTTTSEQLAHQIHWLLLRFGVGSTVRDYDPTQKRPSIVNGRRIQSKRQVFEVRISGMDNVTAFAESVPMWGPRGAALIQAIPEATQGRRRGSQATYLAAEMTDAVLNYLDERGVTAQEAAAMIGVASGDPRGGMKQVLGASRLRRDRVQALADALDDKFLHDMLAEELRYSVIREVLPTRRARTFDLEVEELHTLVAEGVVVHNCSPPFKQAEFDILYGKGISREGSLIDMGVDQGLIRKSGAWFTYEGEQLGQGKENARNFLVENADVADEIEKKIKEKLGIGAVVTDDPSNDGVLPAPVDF

Ephrin type-A receptor 4 = Ephrin type-A receptor 4 (Mus musculus, UniProt Q03137); assay: EphA4 ligand-binding antagonists – biochemical, colorimetric, mouse EphA4, primary screen (AID 689); format: functional
[8] = HCT116 cell viability decrease, GSK3B pretreatment – CellTiter-Glo, IC50, dose response (AID 1117339); format: functional; settings: HCT-116
[9] = Reduced DLD-1 viability, concentration-response, CellTiter-Glo luminescence (AID 1117352); format: functional
[10] = cytotoxicity toward HT-29 cells – cell-based, CellTiter-Glo luminescence, IC50, dose response (AID 1117330); format: functional
[11] = CellTiter-Glo luminescence survival assay, SW480 colon tumor line, concentration-response curve, half-maximal inhibitory concentration (AID 1117338); format: functional
[12] = RKO cell viability reduction, dose response, CellTiter-Glo luminescence (AID 1117322); format: functional
[13] = SNU-C1 cell viability reduction, dose response, CellTiter-Glo luminescence (AID 1117323); format: functional, cell-based
[14] = cytotoxicity toward Colo320 cells – cell-based, CellTiter-Glo luminescence, IC50, dose response (AID 1117334); format: functional; settings: COLO 320
[15] = cytotoxicity toward HCT116 cells – cell-based, CellTiter-Glo luminescence, IC50, dose response (AID 1117332); format: functional; settings: HCT-116
[16] = P. falciparum Dd2 growth inhibitors, dose response, SYBR Green, cherry-picked samples (AID 1159567); format: functional, cell-based
[17] = toxicity to human hepatoma HepG2 cells – cell-based, cherry-picked samples, cytotoxicity control, dose response (AID 1159577); format: functional
NADPH oxidase 1 [18] = biological target: T4, NADPH oxidase 1 (Homo sapiens, UniProt Q9Y5S8); assay: potency of NOX1 inhibition in cells – cell-based, luminescence, cherry picks 2, dose response (AID 434997); format: functional
NADPH oxidase 1 [19] = biological target: T4, NADPH oxidase 1; assay: Late stage results from the probe development effort to identify inhibitors of NOX1: HEK/293 IC50. [Related pubchem assays: 1796 (Summary AID (NOX1)), 2752 (Primary screen (NOX1 inhibitors, synthesized analogs set 2)), 2664 (Primary screen (NOX1 inhibitors, synthesized analogs)), 1792 (Primary Screen (NOX1)), 2545 (Confirmation screen (NOX1 …; format: functional

T4 sequence (Q9Y5S8 whole entry): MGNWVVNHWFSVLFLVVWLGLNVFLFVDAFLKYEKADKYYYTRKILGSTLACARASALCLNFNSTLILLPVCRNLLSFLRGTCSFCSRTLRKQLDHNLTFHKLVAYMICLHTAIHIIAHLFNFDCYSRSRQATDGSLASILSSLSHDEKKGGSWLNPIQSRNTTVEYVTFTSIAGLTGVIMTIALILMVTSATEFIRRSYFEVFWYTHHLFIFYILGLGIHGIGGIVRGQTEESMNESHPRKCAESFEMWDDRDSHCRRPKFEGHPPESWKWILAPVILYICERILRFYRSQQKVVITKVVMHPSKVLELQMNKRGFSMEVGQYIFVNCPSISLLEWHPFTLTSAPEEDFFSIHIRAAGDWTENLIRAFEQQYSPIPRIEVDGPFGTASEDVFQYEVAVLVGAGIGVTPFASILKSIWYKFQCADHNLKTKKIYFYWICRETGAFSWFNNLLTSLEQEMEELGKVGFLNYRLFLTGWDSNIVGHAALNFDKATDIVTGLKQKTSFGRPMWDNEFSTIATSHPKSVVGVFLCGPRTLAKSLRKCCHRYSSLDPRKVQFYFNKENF
Bifunctional protein GlmU, sequence (P9WMN3 whole entry): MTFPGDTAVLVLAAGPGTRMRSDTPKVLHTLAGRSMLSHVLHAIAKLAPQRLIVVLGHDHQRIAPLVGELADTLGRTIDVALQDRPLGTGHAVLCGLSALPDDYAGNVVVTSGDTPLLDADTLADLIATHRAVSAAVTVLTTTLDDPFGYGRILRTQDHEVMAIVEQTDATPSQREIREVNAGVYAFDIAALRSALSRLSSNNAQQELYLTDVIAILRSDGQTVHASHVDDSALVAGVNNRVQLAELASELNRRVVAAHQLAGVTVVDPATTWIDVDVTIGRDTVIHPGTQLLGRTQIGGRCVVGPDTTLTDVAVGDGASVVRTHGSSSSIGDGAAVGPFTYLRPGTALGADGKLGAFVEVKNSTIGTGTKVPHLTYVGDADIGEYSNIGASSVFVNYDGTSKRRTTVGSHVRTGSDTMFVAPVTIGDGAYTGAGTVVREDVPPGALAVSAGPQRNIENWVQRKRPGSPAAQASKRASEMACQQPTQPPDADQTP
Ephrin type-A receptor 4, sequence (Q03137 whole entry): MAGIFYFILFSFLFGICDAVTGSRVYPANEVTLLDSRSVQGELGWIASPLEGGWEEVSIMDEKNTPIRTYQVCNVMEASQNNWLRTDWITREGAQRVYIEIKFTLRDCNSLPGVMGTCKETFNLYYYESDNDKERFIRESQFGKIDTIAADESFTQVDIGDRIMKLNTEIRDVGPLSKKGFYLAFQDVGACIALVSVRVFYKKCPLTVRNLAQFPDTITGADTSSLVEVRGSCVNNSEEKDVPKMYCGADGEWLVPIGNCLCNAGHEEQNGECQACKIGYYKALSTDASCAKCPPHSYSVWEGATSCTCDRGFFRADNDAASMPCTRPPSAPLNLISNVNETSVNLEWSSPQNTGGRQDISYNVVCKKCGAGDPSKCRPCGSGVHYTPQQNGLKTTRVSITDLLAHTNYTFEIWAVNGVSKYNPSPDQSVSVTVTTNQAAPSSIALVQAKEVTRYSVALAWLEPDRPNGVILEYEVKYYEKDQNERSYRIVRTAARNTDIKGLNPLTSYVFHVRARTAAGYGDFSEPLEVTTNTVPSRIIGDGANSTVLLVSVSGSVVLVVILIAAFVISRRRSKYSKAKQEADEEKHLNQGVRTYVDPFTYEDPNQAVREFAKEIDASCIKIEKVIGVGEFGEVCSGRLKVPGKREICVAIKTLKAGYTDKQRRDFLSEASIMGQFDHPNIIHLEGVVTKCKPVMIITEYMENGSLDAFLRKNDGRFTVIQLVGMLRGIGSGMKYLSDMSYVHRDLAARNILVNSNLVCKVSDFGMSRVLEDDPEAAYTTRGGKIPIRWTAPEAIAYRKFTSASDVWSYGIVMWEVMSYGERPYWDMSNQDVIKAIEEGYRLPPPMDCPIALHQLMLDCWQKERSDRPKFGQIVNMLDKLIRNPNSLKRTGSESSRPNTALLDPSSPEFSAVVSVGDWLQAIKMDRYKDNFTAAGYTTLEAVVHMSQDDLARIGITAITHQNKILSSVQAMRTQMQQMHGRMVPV
5-hydroxytryptamine receptor 1A, sequence (P08908 whole entry): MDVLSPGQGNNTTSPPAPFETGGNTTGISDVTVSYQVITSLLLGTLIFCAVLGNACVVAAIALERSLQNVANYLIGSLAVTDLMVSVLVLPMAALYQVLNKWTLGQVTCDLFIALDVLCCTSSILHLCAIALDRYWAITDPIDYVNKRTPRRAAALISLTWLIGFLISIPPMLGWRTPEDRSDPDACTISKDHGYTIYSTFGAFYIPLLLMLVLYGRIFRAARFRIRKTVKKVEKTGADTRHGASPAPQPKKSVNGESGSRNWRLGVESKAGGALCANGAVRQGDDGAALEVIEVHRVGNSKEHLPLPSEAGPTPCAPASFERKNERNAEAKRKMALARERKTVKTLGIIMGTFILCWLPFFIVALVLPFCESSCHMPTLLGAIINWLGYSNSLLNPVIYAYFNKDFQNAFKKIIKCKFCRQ

SMILES: CC(C)S(=O)(=O)C1=NSC2=NC(=O)/C(=C\c3ccc(-c4cccc(C(=O)O)c4)o3)C(=N)N21
- AC50 [1]: 8.1 µM (active)
- IC50 [2]: 13.5 µM (active)

SMILES: COc1cc(CN2CCN(c3cccc(C)c3C)CC2)cc(OC)c1O
- EC50 [3]: > 195 µM (not active)
- EC50 [4]: > 50 µM (not active)

SMILES: O=C(CNC(=O)c1ccccc1)N/N=C/c1ccc([N+](=O)[O-])o1
- AC50 [5]: > 380 µM (inactive)
- EC50 (cells): 0.022 µM (active)
- EC50 [6]: < 0.1 µM (active)
- EC50 [7]: > 60 µM (not active)
- EC50 (Protein RecA): > 380 µM (inactive)

SMILES: O=C1/C(=C\c2ccco2)SC(=S)N1Cc1ccccc1
- IC50 (Ephrin type-A receptor 4): 3.21 µM (active)

SMILES: CCCCCCCCCCCCCCCCCCOP(=O)([O-])OC1CC[N+](C)(C)CC1 [PERIFOSINE]
- IC50 [8]: 5.79 µM (inactive)
- IC50 [9]: > 20 µM (inactive)
- IC50 [10]: 6.9 µM (inactive)
- IC50 [11]: 0.852 µM (active)
- IC50 [12]: 2.1 µM (active)
- IC50 [13]: > 20 µM (inactive)
- IC50 [14]: 2.36 µM (active)
- IC50 [15]: 3.17 µM (active)

SMILES: COc1ccc2c3c([nH]c2c1)[C@@H](CO)N(C(=O)Nc1ccc(F)cc1)CC31CN(Cc2ccccc2OC)C1
- AC50 [16]: 3.7 µM (active)
- AC50 [17]: 9.77 µM (active)

SMILES: Cc1cc(Cl)ccc1NC(=S)NNC(=S)Nc1ccc(F)cc1
- IC50 (NADPH oxidase 1 [18]): 0.67 µM (active)
- IC50 (NADPH oxidase 1 [19]): 0.96 µM (active)
